Results: PMC7196836, “Molecular analysis of the ribosome recycling factor ABCE1 bound to the 30S post‐splitting complex” (The EMBO Journal, 2020)

Molecular target: T1, ABCE1 (Saccharolobus solfataricus, UniProt Q980K5, L353Y)
T1 construct: gene SSO0287; recombinant in E. coli (pSA4 plasmid), C-terminal His6 tag; FeS cluster domain kept
Experiment: Malachite Green ATPase assay (phosphate release)
Type: biochemical
Conditions: 2 mM ATP, 2.5 mM MgCl2, 150 mM NaCl, Hepes pH 7.5, 80 °C; no ribosomes

Nc1ncnc2c1ncn2[C@@H]1O[C@H](COP(=O)(O)OP(=O)(O)OP(=O)(O)O)[C@@H](O)[C@H]1O [ATP]
ATP turnover per ABCE1: ATPase activity of ABCE1^L353Y (Appendix Fig S3) were comparable to wild type
